Results: paper PMC8039949, “A novel small-molecule PROTAC selectively promotes tau clearance to improve cognitive functions in Alzheimer-like models” (Theranostics, 2021)

Legend:
mRNA level of tau = experiment: Tau mRNA level by q-PCR in HEK293-hTau cells; format: cell-based, human; details: 20 μM for 24 h
Procedure: Total RNA was isolated by using Trizol™ kit (Invitrogen, Carlsbad, CA, USA) and the reverse transcription reagent kit (RR037, Takara) was used to obtain cDNA. RT-PCR was performed using a StepOnePlus Real-Time PCR Detection System (AB Applied Biosystems, 272001262, Cossell Biotechnology). The PCR system contains 2 μL forward and reverse primers, 10 μL SYBR Green PCR master mixes, 1 μL cDNA and 7 μL diethylpyrocarbonate (DEPC H2O). The primer of MAPT-forward was CAGCTCCGGCACCAACAG and the MAPT-reverse was […]. The primer of β-actin-forward was […] and β-actin-reverse was […].

hTau transgenic mice = experiment: Multiple-doses subcutaneous administration in hTau transgenic mice, behavior and dendritic morphology; format: in vivo, mouse; details: 12 m-old hTau transgenic mice, subcutaneous 3 mg/kg once every 6 days, 5 times
Procedure: The Open field (OF) test was consisted of a 5 min session in a quadrate chamber (white opaque plastic). The chamber was divided into 16 square regions, a central field (center 4 square regions) and a periphery field. Each mouse was placed in the same position at the start of the test. Behaviors were recorded and analyzed by the video tracking system (Chengdu Taimeng Software Co., Ltd, China).
For novel object recognition (NOR) test, the mice were habituated to a quadrate chamber (white opaque plastic) for 5 min without objects 24 h prior to the test. The chamber was cleaned with 75% ethanol between each habituation period. The day after the mice re-entered the chamber from the same starting point and were given 10 min to familiarize themselves with the object A and object B. After each period the chamber and objects were cleaned with 75% ethanol. The next day after the familiarization period, object B was replaced with noval object C, and the mice were given 10 min to explore both objects. The exploring time in object A (TA) and C (TC) was recorded using the video tracking system. The discrimination index was calculated by (TC-TA)/(TA+TC).
The Elevated plus maze (EPM) test was performed as follows: mice were placed at the junction of the four arms of the maze (white opaque plastic), and started the test from facing an open arm. The chambers were cleaned with 75% ethanol before the next mouse was trained. The entries and duration time in each arm were recorded for 5 min by the video tracking system (Chengdu Taimeng Software Co., Ltd, China). An increase in open arm activity (duration and/or entries) reflects anti-anxiety behavior.
The Morris water maze (MWM) test was conducted to assess the spatial learning and memory. The maze was filled with water and divided into 4 quadrants with a platform placed in one quadrant. The mice were trained to find the hidden platform for 6 consecutive days, and underwent […] training trials (once per quadrant) per day from 14:00 to 20:00 pm. In each training trial, the mouse started from one of four quadrants facing the wall of the pool and the trial ended when the animal climbed on the platform. […] The spatial memory was tested 1 d after the last training by removed the platform. The longer a mouse stayed in the previous platform-located quadrant, the better it scored the spatial memory. A video camera, fixed to the ceiling 1.5 m from the water surface, was used to record the swimming path and the time for mice to find the platform (latency) or to pass through the previous platform-located quadrant each day. The camera was connected to a digital-tracking device attached to an IBM computer (Armonk, NY).
For fear conditioning (FC) test, the mice were placed into a square chamber with a grid floor. On the first day (day 1), each mouse was habituated to the chamber for 3 min, and then a foot shock (0.9 mA, 3 s) was delivered. Three sequential foot shocks at 3 min intervals were applied. Then the mice were returned to their home cages. On the next day (day 2), the mice were exposed to the same chamber without any stimulus for 3 min. The contextual conditioning was assessed by recording freezing behavior during the 3 min exposure. Freezing time during the 3 min was recorded for assessment of memory.
Golgi staining was performed by using a Rapid GolgiStain Kit (FD neurotechnologies, PK401) according to the manufacturer's instructions. Briefly, the animals were sacrificed and perfused for 5 min with PBS. All procedures were performed under dark condition. Brains were dissected out and immersed in impregnation solution (equal volumes of Solutions A and B, containing mercuric chloride, potassium dichromate, and potassium chromate, mixed for 24 h in advance), and stored at room temperature. Impregnation solution was replaced after 24 h. After 4 weeks, brains were transferred to Solution C and stored at 4 °C for 72 h, with the solution replaced after 24 h. […]

Question: Which results are given for `CC(=O)N1CCCN(c2nc(NCCc3cccs3)nc(N(C)CC(=O)NCCOCCOCCOCC(=O)N[C@H](C(=O)N3C[C@H](O)C[C@H]3C(=O)NCc3ccc(-c4scnc4C)cc3)C(C)(C)C)n2)CC1` [C004019]?
Answer: mRNA level of tau (mRNA level of tau): did not significantly change the mRNA level of tau; duration time in the open arm, elevated plus maze (EPM) (hTau transgenic mice): no significant changes were detected; fear condition (FC) test, freezing index (hTau transgenic mice): improved freezing index; free movement in open field (OF) test (hTau transgenic mice): no significant changes were detected; novel object recognition (NOR) test (hTau transgenic mice): increased time exploring new object; neurite arborization and spine density in hippocampal DG (hTau transgenic mice; Golgi-cox staining and Sholl analysis): significantly increased; Morris water maze (MWM) test, latency (hTau transgenic mice; learning trial and probe trial): decreased latency to find the platform
